Marks after values point to notes of the source that are not given here.
Tested on: Plasmodium berghei (KBG-173 strain)
Assay: Plasmodium berghei assay in vivo (modified Thompson Test), survival of infected mice
Parameters: species or system Charles River CD-1 mice
Details: oral bid on days 3, 4 and 5; for Average Days Survival: 31 day experiment
Description: In vivo antimalarial activity was tested in male or female Charles River CD-1 mice that were 4-5 weeks old and weighed 20-25 g They were housed in groups of 3 or 4 in standard plastic cages with wire tops, Bed-o-cob® bedding, 12 hr/day of light, and maintained at 75° F. They were fed a standard Ralston Purina mouse chow and the cages and bottles were changed twice a week. Test compounds were ground in a mortar and pestle and diluted with enough vehicle to give a volume of 10 mL/kg of mouse weight. The oral doses were prepared in 0.5% hydroxyethylcellulose (Union Carbide Corp. WP 4400)/0.1% Tween-80 (Fisher Scientific T164-500). The amount of drug was calculated on the free base weight. The mice were infected intraperitoneally on day 0 with 5×10^4 erythrocytes parasitized with Plasmodium berghei (KBG-173 strain) from a donor mouse having a parasitemia between 5-10%. On days 3, 4 and 5 the test compounds were administered bid, spaced 6 hr apart, by oral gavage to the mice. Activity was measured by survival, with full activity defined as all animals living at day 31. Partial activity is defined as days of increased survival versus the infected non-treated controls. This in vivo model is a modification of the Thompson Test. For further description see Ager, A. L, Jr. Rodent Malaria Models. In Handbook of Experimental Pharmacology: Antimalarial Drugs. 1. 68/1; Peters, W., Richards, W. H. G., Eds.: Springer-Verlag: Berlin, 1984, pp. 231-33.

[1] = Plasmodium berghei, 744 h, 4 mg/kg/day, read-out: Number of mice alive at day 31 (converted)
[2] = Plasmodium berghei, 744 h, 8 mg/kg/day, read-out: Number of mice alive at day 31 (converted)
[3] = Plasmodium berghei, 744 h, 16 mg/kg/day, read-out: Number of mice alive at day 31 (converted)
[4] = Plasmodium berghei, 744 h, 32 mg/kg/day, read-out: Number of mice alive at day 31 (converted)
[5] = Plasmodium berghei, 744 h, 64 mg/kg/day, read-out: Number of mice alive at day 31 (converted)
[6] = Plasmodium berghei, 744 h, 2 mg/kg/day, read-out: Number of mice alive at day 31 (converted)

Structure (SMILES)	Average Days Survival (4 mg/kg/day)	Average Days Survival (8 mg/kg/day)	Average Days Survival (16 mg/kg/day)	Average Days Survival (32 mg/kg/day)	Average Days Survival (64 mg/kg/day)	Average Days Survival (128 mg/kg/day)	Average Days Survival (256 mg/kg/day)	responders at 4 mg/kg [1]	responders at 8 mg/kg [2]	responders at 16 mg/kg [3]	responders at 32 mg/kg [4]	responders at 64 mg/kg [5]	responders at 128 mg/kg (Plasmodium berghei, 744 h, 128 mg/kg/day, read-out: Number of mice alive at day 31 (converted))	responders at 256 mg/kg (Plasmodium berghei, 744 h, 256 mg/kg/day, read-out: Number of mice alive at day 31 (converted))	Average Days Survival (2 mg/kg/day)	responders at 2 mg/kg [6]	Average Days Survival (1 mg/kg/day)	responders at 1 mg/kg (Plasmodium berghei, 744 h, 1 mg/kg/day, read-out: Number of mice alive at day 31 (converted))
CC(C)(C)NCc1cc(C(C)(C)C)cc(-c2ccc(OC(F)(F)F)cc2)c1O [Example 5, 5-(tert-Butyl)-3-((tert-butylamino)methyl)-4′-(trifluoromethoxy)-[1,1′-biphenyl]-2-ol]	>19.3 days	>31* Days	>31* Days	>31* Days	>31* Days	>31* Days	>31* Days	42.9%	100%	100%	100%	100%	100%	100%	–	–	–	–
CC(C)(C)NCc1cc(C(C)(C)C)cc(-c2cc(C(F)(F)F)cc(C(F)(F)F)c2)c1O.Cl [Example 16, 5-(tert-Butyl)-3-((tert-butylamino)methyl)-3′,5′-bis(trifluoromethyl)-[1,1′-biphenyl]-2-ol hydrochloride]	>17 days	>31* Days	>31* Days	>31* Days	–	–	–	85.7%	100%	100%	100%	–	–	–	>20.5 days	42.9%	–	–
CC1(NCc2cc(C(C)(C)C)cc(-c3ccc(OC(F)(F)F)cc3)c2O)CCC1.Cl [Example 18, 5-(tert-Butyl)-3-(((1-methylcyclobutyl)amino)methyl)-4′-(trifluoromethoxy)-[1,1′-biphenyl]-2-ol hydrochloride]	15.7 days	>31* Days	>31* Days	>31* Days	–	–	–	0%	100%	100%	100%	–	–	–	–	–	–	–
CC(C)(C)NCc1cc(C(C)(C)C)cc(-c2ccc(Cl)c(Cl)c2)c1O.Cl [Example 19, 5-(tert-Butyl)-3-((tert-butylamino)methyl)-3′,4′-dichloro-[1,1′-biphenyl]-2-ol hydrochloride]	>31* Days	>31* Days	>31* Days	–	–	–	–	100%	100%	100%	–	–	–	–	>7 days	85.7%	>19.6 days	28.6%
CC(C)(C)NCc1cc(C(C)(C)C)cc(-c2ccc(C(F)(F)F)cc2)c1O.Cl [Example 22, 5-(tert-Butyl)-3-((tert-butylamino)methyl)-4′-(trifluoromethyl)-[1,1′-biphenyl]-2-ol hydrochloride]	>24 days	>31* Days	>31* Days	>31* Days	>31* Days	–	–	85.7%	100%	100%	100%	100%	–	–	>16.8 days	28.6%	–	–
CC(C)(C)NCc1cc(C(C)(C)C)cc(-c2ccc(F)c(Cl)c2)c1O.Cl [Example 24, 5-(tert-Butyl)-3-((tert-butylamino)methyl)-3′-chloro-4′-fluoro-[1,1′-biphenyl]-2-ol hydrochloride]	>14.5 days	>16 days	>31* Days	>31* Days	–	–	–	71.4%	85.7%	100%	100%	–	–	–	>17 days	42.9%	–	–
CC(C)(C)NCc1cc(-c2ccc(Cl)cc2)cc(-c2ccc(Cl)c(Cl)c2)c1O.Cl [Example 39, 5′-((tert-Butylamino)methyl)-3″,4,4″-trichloro-[1,1′:3′,1″-terphenyl]-4′-ol hydrochloride]	>31* Days	>31* Days	>31* Days	–	–	–	–	100%	100%	100%	–	–	–	–	>23 days	14.3%	–	–
